Assay results taken from patent publication US20220161456A1, “S[…] PRESERVATIVE COMPOSITION COMPRISING POLYMERIC BETAINE AND CARBAMATE” (Troy Corporation, priority 2019, published 2022).

Tested on: Trichoderma pseudokoningii (ATCC #26801)
Test: EUCAST 96-well plate fungal growth inhibition (MIC)
Format: cell-based
Design: key to growth of Trichoderma pseudokoningii in 96-well plates: (+) in each block indicates growth; (−) indicates no growth, i.e., the inhibitor was effective
Details: for MIC: Trichoderma pseudokoningii ATCC 26801, 3 days at 35° C.
Method: (A) 0.17 g of 60% DPAB aqueous solution (ProTek® PBT or Polymeric Betaine EP or Polymeric Betaine Technical Grade Active Ingredient Wood Preservative, Troy Chemical Corporation, Newark, N.J.) was diluted in 9.83 g ethanol by stirring to form a concentrate containing 1% DPAB.
(B) 0.25 g of 40% IPBC solvent solution (Polyphase® AF-1, Troy Chemical Corporation, Newark, N.J.) was diluted in 9.75 g ethanol by stirring to form a concentrate containing 1% IPBC.
(C) 21.04 g of 60% DPAB aqueous solution (ProTek® PBT or Polymeric Betaine EP or Polymeric Betaine Technical Grade Active Ingredient Wood Preservative, Troy Chemical Corporation, Newark, N.J.), 6.25 g of 40% IPBC solvent solution (Polyphase AF-1, Troy Chemical Corporation, Newark, N.J.) and 22.74 g of ethanol were mixed and stirred. The resulting concentrate contained 25% polymeric betaine and 5% IPBC. The weight ratio of polymeric betaine to IPBC was 5:1. 0.33 g of this IPBC/polymeric betaine concentrate was diluted in 9.67 g of ethanol to form a use-dilution containing about 0.83% DPAB and 0.17% IPBC.
Solutions prepared as described above were tested in 96-well plates for their ability to inhibit fungal growth. The solutions were tested according to the EUCAST methodology as described in Rodriguez-Tudela et al. 2006 “Antifungal susceptibility testing in Aspergillus spp. according to EUCAST methodology,” the contents of which are incorporated by reference herein. The solutions were checked for inhibition against fungal organisms Aspergillus niger (ATCC #6275), Aureobasidium pullulans (ATCC #9348), Penicillium funiculosum (ATCC #11797) and Trichoderma pseudokoningii (ATCC #26801). This method is described below:
(1) Prepared preservative test wells by adding 2 microliters of each 1% preservative solution formulation to 198 microliters of 2xRPMI-MOPS-2% Glucose in each column “1” in duplicate.
(2) Added 100 microliters of 2xRPMI-MOPS-2% Glucose to the remaining columns.
(3) Performed 2-fold dilutions down the columns to column “12”.
(4) Prepared suspension of microorganisms from a 3-5 day old PDA slants by flooding slant with 1 mL deionized water and 0.1% Tween-20.
(5) Suspension strength was determined via hemocytometer then adjusted to 1×10^6 spores/mL with sterile deionized water.
(6) Added 100 microliters of the microorganism suspension to all wells except for sterility (−) controls containing test media. The water used to prepare the fungal suspensions was added to sterility (−) control wells.
(7) The inoculated 96-well plates were incubated for 3 days at 35° C.
(8) After incubation, fungal growth was evaluated by visual growth in test wells. Minimum inhibitory concentration (MIC) is recorded in ppm and defined as the lowest concentration of fungicide that produces no visual changes in turbidity in the test wells. (+) in each block indicates growth and (−) indicates no growth, i.e., the inhibitor was effective.
(9) The experiment is only considered valid if growth is observed in the positive (+) control wells and no growth is observed in the negative control wells.
In order to show more directly the possible synergy in the invention, the results are presented by applying the Synergy Index (S.I.). Minimal inhibitory concentration of the composition of this invention (mixture of DPAB and IPBC) are analyzed using the following equation:
MCA=Concentration of compound A in parts per million, acting alone, which prevents fungal growth at the reference point
MCA′=Concentration of compound A in parts per million, in the mixture, which prevents fungal growth at the reference point
MCB=Concentration of compound B in parts per million, acting alone, which prevents fungal growth at the reference point
MCB′=Concentration of compound B in parts per million, in the mixture, which prevents fungal growth at the reference point
When SI is greater than 2, antagonism is indicated. […] When SI is between 0.5 and 2, the action of biocides is additive.

Molecule	MIC	growth of Trichoderma pseudokoningii in 96-well plates (well 1, 50.00 ppm active)	growth of Trichoderma pseudokoningii in 96-well plates (well 2, 25.00 ppm active)	growth of Trichoderma pseudokoningii in 96-well plates (well 3, 12.50 ppm active)	growth of Trichoderma pseudokoningii in 96-well plates (well 4, 6.25 ppm active)	growth of Trichoderma pseudokoningii in 96-well plates (well 5, 3.13 ppm active)	growth of Trichoderma pseudokoningii in 96-well plates (well 6, 1.56 ppm active)	growth of Trichoderma pseudokoningii in 96-well plates (well 7, 0.78 ppm active)	growth of Trichoderma pseudokoningii in 96-well plates (well 8, 0.39 ppm active)	growth of Trichoderma pseudokoningii in 96-well plates (well 9, 0.20 ppm active)	growth of Trichoderma pseudokoningii in 96-well plates (well 10, 0.10 ppm active)	growth of Trichoderma pseudokoningii in 96-well plates (well 11, 0.05 ppm active)	growth of Trichoderma pseudokoningii in 96-well plates (well 12, 0.02 ppm active)
didecyl bis(hydroxyethyl) ammonium borate [DPAB]	25.00 ppm	−	−	+	+	+	+	+	+	+	+	+	+
CCCCNC(=O)OCC#CI [IPBC, 3-iodo-2-propynyl butyl carbamate]	6.25 ppm	−	−	−	−	+	+	+	+	+	+	+	+
